# Results reported in patent US6608086B2, “Dihydropyridines and new uses thereof” (Synaptic Pharmaceutical Corporation, priority 1993, dated 2003).
# pKi: −log10 of the molar value. Structures can show the parent of a compound that is named as a salt. Where two headings read alike, the source gives them in different places.
# How the values were obtained:
# [1] = biological target: T1, α1A Human Adrenergic Receptor (Homo sapiens, UniProt P25100); experiment: Radioligand binding, [3H]prazosin, cloned human α1A adrenergic receptor; settings: for pKi: pKi alpha-1 1a; for Ki: read-out: pKi alpha-1 1a (converted)
# T1 construct: The entire coding region of α1A (1719 bp); expressed in transfected cells
# T1 sequence (P25100 1-572): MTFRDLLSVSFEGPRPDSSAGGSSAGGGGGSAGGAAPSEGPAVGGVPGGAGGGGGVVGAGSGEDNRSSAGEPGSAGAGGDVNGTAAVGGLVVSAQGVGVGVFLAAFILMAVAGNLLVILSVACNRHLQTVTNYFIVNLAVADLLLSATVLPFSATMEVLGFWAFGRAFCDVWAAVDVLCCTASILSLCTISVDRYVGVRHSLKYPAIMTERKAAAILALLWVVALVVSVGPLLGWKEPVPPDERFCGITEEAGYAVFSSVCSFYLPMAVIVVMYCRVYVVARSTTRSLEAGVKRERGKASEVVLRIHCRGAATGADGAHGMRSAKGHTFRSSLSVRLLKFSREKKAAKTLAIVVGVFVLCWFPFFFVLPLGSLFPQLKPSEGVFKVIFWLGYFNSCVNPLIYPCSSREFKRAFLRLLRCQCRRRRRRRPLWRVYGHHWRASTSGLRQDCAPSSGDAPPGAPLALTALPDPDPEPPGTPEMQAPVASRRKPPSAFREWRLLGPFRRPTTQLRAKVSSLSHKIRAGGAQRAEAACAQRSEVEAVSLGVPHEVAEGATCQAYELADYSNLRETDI
# Procedure, shortened: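 [3H]prazosin 0.5 nM, transfected LM(tk−) membranes, 37° C, 20 min. Buffer 50 mM Tris-HCl/1 mM MgCl2/0.1% ascorbate, pH 7.5. NSB: 10 μM phentolamine. Filtration harvest.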
# [2] = biological target: T2, α1B Human Adrenergic Receptor (Homo sapiens, UniProt P35368); experiment: Radioligand binding, [3H]prazosin, cloned human α1B adrenergic receptor; settings: cloned human α1B receptor, LM(tk−) cell membranes; for pKi: pKi alpha-1 1b; for Ki: read-out: pKi alpha-1 1b (converted)
# T2 construct: The entire coding region of α1B (1563 bp); expressed in transfected cells
# T2 sequence (P35368 1-520): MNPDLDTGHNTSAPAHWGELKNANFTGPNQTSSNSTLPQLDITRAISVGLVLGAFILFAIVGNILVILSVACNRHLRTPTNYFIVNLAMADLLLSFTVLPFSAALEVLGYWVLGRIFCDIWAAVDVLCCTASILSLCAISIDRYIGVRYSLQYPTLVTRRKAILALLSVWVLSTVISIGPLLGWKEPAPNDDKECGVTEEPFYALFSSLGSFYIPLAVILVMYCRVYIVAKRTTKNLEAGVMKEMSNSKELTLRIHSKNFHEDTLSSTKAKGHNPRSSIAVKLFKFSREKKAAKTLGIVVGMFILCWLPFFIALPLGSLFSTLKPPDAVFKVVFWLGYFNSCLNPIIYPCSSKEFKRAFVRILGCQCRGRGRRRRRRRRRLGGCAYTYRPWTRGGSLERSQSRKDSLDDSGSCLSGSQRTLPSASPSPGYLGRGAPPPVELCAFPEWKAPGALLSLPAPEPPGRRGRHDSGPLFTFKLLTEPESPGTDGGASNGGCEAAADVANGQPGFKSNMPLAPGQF
# Procedure, shortened: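 [3H]prazosin (0.5 nM) binding was run for 20 min at 37° C in pH 7.5 Tris/MgCl2/ascorbate buffer on membranes of LM(tk−) cells stably expressing the cloned receptor. Filtration through GF/B ended the reaction; 10 μM phentolamine gave nonspecific binding.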
# [3] = biological target: T3, α1C Human Adrenergic Receptor (Homo sapiens, UniProt P35348); experiment: Radioligand binding, [3H]prazosin, cloned human α1C adrenergic receptor; settings: cloned human α1C receptor, LM(tk−) cell membranes; for pKi: pKi alpha-1 1c; for Ki: read-out: pKi alpha-1 1c (converted)
# T3 construct: The entire coding region of α1C (1401 bp); expressed in transfected cells
# T3 sequence (P35348 1-466): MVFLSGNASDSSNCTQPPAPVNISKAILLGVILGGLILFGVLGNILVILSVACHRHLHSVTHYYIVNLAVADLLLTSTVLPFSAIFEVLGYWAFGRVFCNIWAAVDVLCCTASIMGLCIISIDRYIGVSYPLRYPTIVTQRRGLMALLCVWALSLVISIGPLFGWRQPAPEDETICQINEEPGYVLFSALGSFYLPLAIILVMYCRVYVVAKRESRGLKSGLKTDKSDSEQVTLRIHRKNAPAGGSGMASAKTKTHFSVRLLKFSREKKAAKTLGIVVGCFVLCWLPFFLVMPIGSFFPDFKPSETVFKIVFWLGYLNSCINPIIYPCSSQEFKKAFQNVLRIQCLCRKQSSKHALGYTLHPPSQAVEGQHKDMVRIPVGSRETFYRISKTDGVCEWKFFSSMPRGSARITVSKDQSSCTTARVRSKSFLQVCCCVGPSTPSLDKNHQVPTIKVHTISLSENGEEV
# Procedure, shortened: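 Antagonist radioligand [3H]prazosin at 0.5 nM labels human α1C receptors in stably transfected LM(tk−) cell membranes over 20 min at 37° C. Phentolamine (10 μM) gives nonspecific binding.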
# [4] = [3H]prazosin, cloned human α1A receptor, LM(tk−) cell membranes
SMILES,"pKi [1, 4]",pKi [2],pKi [3],pKi [1],Ki [2],Ki [3],"Ki [1, 4]"
"COc1ccc(C2(c3ccccc3)CCN(CCCNC(=O)C3=C(C)NC(C)=C(C(N)=O)C3c3ccc([N+](=O)[O-])cc3)CC2)cc1 (stereo not drawn) [Example 98, 5-Carboxamido-1,4-dihydro-3-{N-[3-(4-(4-methoxyphenyl)-4-phenylpiperidin-1-yl)propyl]}carboxamido-2,6-dimethyl-4-(4-nitrophenyl)pyridine hydrochloride]",5.96,6.52,8.32,,,,
"CCC1=C(C(N)=O)C(c2ccc([N+](=O)[O-])cc2)C(C(=O)NCCCN2CCC(O)(c3ccccc3)CC2)=C(CC)N1 (stereo not drawn) [Example 100, 5-Carboxamido-2,6-diethyl-1,4-dihydro-3-{N-(3-(4-hydroxy-4-phenylpiperidin-1-yl)propyl]}carboxamido-4-(4-nitrophenyl)pyridine hydrochloride hydrate]",5.31,5.83,8.36,,,,
"CCC1=C(C(N)=O)C(c2ccc([N+](=O)[O-])cc2)C(C(=O)NCCCN2CCC(c3ccc(OC)cc3)(c3ccc(OC)cc3)CC2)=C(CC)N1 (stereo not drawn) [Example 103, 5-Carboxamido-2,6-diethyl-1,4-dihydro-3-{N-[3-(4,4-bis-(4-methoxyphenyl)piperidin-1-yl)propyl]}carboxamido}-4-(4-nitrophenyl)pyridine hydrochloride]",,,,5.60,182 nM,10.7 nM,
"CCC1=C(C(N)=O)C(c2ccc([N+](=O)[O-])cc2)C(C(=O)NCCCN2CCC3(CC2)C(=O)NCN3c2ccccc2)=C(CC)N1 (stereo not drawn) [Example 105, 5-Carboxamido-2,6-diethyl-1,4-dihydro-4-(4-nitrophenyl)-3-{N-[3-(1-phenyl-4-oxo-1,3,8-triazaspiro[4.3]decan-8-yl)propyl]}carboxamidopyridine hydrochloride hydrate]",,,,5.61,3160 nM,692 nM,
"CCC1=C(C(N)=O)C(c2ccc([N+](=O)[O-])cc2)C(C(=O)NCCCN2CCC(C)(c3ccccc3)CC2)=C(CC)N1 (stereo not drawn) [Example 106, 5-Carboxamido-2,6-diethyl-1,4-dihydro-3-{N-[3-(4-Methyl-4-phenylpiperidin-1-yl)propyl]}carboxamido-4-(4-nitrophenyl)pyridine hydrochloride hydrate]",5.62,6.03,7.82,,,,
"CCC1=C(C(=O)NCCCN2CCC(c3ccccc3)(c3ccccc3)CC2)C(c2ccc(N)cc2)C(C(=O)OC)=C(C)N1 (stereo not drawn) [Example 114, 4-(4-Aminophenyl)-2-ethyl-1,4-dihydro-5-methoxycarbonyl-6-methyl-3-(N-(3-(4,4-diphenylpiperidin-1-yl)propyl)carboxamido)-pyridine]",,,,6.26,204 nM,10.2 nM,
"CCC1=C(C(N)=O)C(c2ccc(S(C)(=O)=O)cc2)C(C(=O)NCCCN2CCC(c3ccccc3)(c3ccccc3)CC2)=C(CC)N1 (stereo not drawn) [Example 116, 5-Carboxamido-2,6-diethyl-1,4-dihydro-4-(4-methanesulfonylphenyl)-3-(N-(3-(4,4-diphenylpiperidin-1-yl)propyl)carboxamido)-pyridine]",6.73,6.12,8.41,,,,
"CCC1=C(C(N)=O)C(c2ccc([N+](=O)[O-])cc2)C(C(=O)NCCCN2CCN(c3ccccc3OC)CC2)=C(CC)N1 (stereo not drawn) [Example 125, 5-Carboxamido-2,6-diethyl-1,4-dihydro-3-(N-{3-[4-(2-methoxyphenyl)piperazin-1-yl]propyl})carboxamido-4-(4-nitrophenyl)pyridine]",,,,,129 nM,1.15 nM,77.6 nM
CCC1=C(C(=O)OCCC#N)C(c2ccc([N+](=O)[O-])cc2)C(C(=O)NCCCN2CCC(c3ccccc3)(c3ccccc3)CC2)=C(COC)N1 (stereo not drawn) [Example 135],,,,,178 nM,105 nM,501 nM
